Where a name gives a salt, the structure may show the parent alone.
Biological target: T1, JAK3 (Homo sapiens, UniProt P52333)
T1 construct: The Ramos B-cell line was acquired from ATCC (ATCC Catalog No. CRL-1596); host or cells: Ramos B-cell line (human)
T1 sequence (P52333 1-1124): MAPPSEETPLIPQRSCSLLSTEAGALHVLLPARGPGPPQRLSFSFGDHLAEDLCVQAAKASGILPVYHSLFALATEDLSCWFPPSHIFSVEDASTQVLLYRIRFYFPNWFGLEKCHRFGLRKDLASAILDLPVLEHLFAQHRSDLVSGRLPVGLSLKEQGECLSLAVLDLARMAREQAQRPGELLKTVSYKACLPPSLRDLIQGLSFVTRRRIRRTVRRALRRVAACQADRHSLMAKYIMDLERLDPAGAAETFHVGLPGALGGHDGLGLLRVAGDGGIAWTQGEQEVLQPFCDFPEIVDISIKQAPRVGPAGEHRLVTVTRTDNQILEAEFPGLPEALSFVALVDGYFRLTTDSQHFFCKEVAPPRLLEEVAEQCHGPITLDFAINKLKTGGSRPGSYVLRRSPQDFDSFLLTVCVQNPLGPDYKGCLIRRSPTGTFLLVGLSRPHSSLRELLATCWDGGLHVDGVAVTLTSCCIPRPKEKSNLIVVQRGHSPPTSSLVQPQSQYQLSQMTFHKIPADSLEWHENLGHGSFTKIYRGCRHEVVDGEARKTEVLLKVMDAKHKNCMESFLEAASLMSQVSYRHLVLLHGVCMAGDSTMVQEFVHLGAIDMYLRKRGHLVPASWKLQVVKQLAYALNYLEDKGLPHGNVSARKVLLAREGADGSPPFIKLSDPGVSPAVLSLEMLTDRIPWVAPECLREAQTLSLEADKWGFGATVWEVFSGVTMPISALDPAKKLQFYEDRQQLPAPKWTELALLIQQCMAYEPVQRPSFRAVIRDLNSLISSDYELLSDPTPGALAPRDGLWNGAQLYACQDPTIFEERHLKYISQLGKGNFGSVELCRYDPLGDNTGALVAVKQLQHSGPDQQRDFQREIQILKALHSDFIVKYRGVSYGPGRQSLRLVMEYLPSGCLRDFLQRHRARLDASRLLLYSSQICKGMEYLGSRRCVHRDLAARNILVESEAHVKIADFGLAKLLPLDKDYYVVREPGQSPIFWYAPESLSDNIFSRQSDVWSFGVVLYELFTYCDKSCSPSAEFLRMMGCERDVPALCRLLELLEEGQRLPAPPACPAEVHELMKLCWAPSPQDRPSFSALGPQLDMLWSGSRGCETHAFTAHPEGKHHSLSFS
Test: Assay for CD23 expression on Ramos B-cells stimulated by IL-4 (Table IV: ability to inhibit JAK3 activity)
Type: cell-based
Settings: tested under conditions described in Example 3 (so in the source)
Description: One means of assaying for such inhibition is detection of the effect of the 2,4-pyrimidinediamine compounds on the upregulation of downstream gene products. In the Ramos/IL4 assay, B-cells are stimulated with the cytokine Interleukin-4 (IL-4) leading to the activation of the JAK/Stat pathway through phosphorylation of the JAK family kinases, JAK1 and JAK3, which in turn phosphorylate and activate the transcription factor Stat-6. […] To study the effect of inhibitors (for example, the 2,4-substituted pyrimindinediamine compounds described herein) on the JAK1 and JAK3 kinases, human Ramos B cells are stimulated with human IL-4. 20 to 24 hours post stimulation, cells are stained for upregulation of CD23 and analyzed using FACS.
B-cells stimulated with cytokine Interleukin-4 (IL-4) activate the JAK/Stat pathway through phosphorylation of the JAK family kinases, JAK-1 and JAK-3, which in turn phosphorylate and activate the transcription factor Stat-6. […] To study the effect of inhibitors on the JAK family kinases, human Ramos B cells were stimulated with human IL-4 and the surface expression of CD23 was measured.
The day before the experiment, Ramos B-cells were diluted to 3.5×10^5 cells/mL to ensure that they were in a logarithmic growth phase.
Cells were spun down and suspended in RPMI with 5% serum. 5×10^4 cells were used per point in a 96-well tissue culture plate. Cells were pre-incubated with compound or DMSO (Sigma-Aldrich, St. Louis, Mo., Cat No. D2650) vehicle control for 1 hour in a 37° C. incubator. Cells were then stimulated with IL-4 (Peprotech Inc., Rocky Hill, N.J., Cat No. 200-04) for a final concentration of 50 units/mL for 20-24 hours. […] Detection was performed using a BD LSR I System Flow Cytometer, purchased from Becton Dickinson Biosciences of San Jose, Calif.
The compound designations in Table IV are consistent with those of Tables I-II above.

Compound	IC50
COc1c(Br)ccc(Nc2ncc(C)c(Nc3ccc4oc(=O)[nH]c4c3)n2)c1F [Compound I-27, 5-[2-(4-Bromo-2-fluoro-3-methoxy-phenylamino)-5-methyl-pyrimidin-4-ylamino]-3H-benzooxazol-2-one]	< 500 nM
O=C(NC1CCC1)c1ccc(Nc2ncc(F)c(Nc3ccc4oc(=O)[nH]c4c3)n2)cc1 [Compound I-159, N-cyclobutyl-4-(5-fluoro-4-(2-oxo-2,3-dihydrobenzo[d]oxazol-5-ylamino)pyrimidin-2-ylamino)benzamide formate salt]	< 500 nM
CCN(CC)Cc1cc(Nc2nc(Nc3cc(C)c(C)c(C)c3)ncc2C)cc2[nH]c(=O)oc12 [Compound I-90, 7-((diethylamino)methyl)-5-(2-(3,4,5-trimethylphenylamino)-5-methylpyrimidin-4-ylamino)benzo[d]oxazol-2(3H)-one ditrifluoroacetate salt]	500 to 5000 nM
Cc1ccc(Nc2ncc(F)c(Nc3ccc4oc(=O)[nH]c4c3)n2)cc1-c1cccnc1 [Compound I-204, 5-(2-(4-methyl-3-(pyridin-3-yl)phenylamino)-5-fluoropyrimidin-4-ylamino)benzo[d]oxazol-2(3H)-one]	< 500 nM
Cc1cc(Nc2ncc([N+](=O)[O-])c(Nc3ccc4oc(=O)[nH]c4c3)n2)cc(C)c1C [Compound I-42, 5-(5-nitro-2-(3,4,5-trimethylphenylamino)pyrimidin-4-ylamino)benzo[d]oxazol-2(3H)-one trifluoroacetate salt]	> 10000 nM
COCCOc1c(C)ccc(Nc2ncc(F)c(Nc3ccc4oc(=O)[nH]c4c3)n2)c1F [Compound I-61, 5-(5-fluoro-2-(2-fluoro-3-(2-methoxyethoxy)-4-methylphenylamino)pyrimidin-4-ylamino)benzo[d]oxazol-2(3H)-one trifluoroacetate salt]	< 500 nM
CCOc1cc(Nc2ncc(C)c(Nc3ccc4oc(=O)[nH]c4c3)n2)cc(C)c1C [Compound I-103, 5-(2-(3-ethoxy-4,5-dimethylphenylamino)-5-methylpyrimidin-4-ylamino)benzo[d]oxazol-2(3H)-one ditrifluoroacetate salt]	< 500 nM
CCN(CC)Cc1cnc(Nc2cc(C)c(C)c(C)c2)nc1Nc1ccc2oc(=O)[nH]c2c1 [Compound I-97, 5-(5-((diethylamino)methyl)-2-(3,4,5-trimethylphenylamino)pyrimidin-4-ylamino)benzo[d]oxazol-2(3H)-one ditrifluoroacetate salt]	500 to 5000 nM
COc1ccc(Nc2ncc(Cl)c(Nc3ccc4oc(=O)[nH]c4c3)n2)c(F)c1 [Compound I-76, 5-(5-chloro-2-(2-fluoro-4-methoxyphenylamino)pyrimidin-4-ylamino)benzo[d]oxazol-2(3H)-one trifluoroacetate salt]	< 500 nM
COc1ccc(Nc2ncc(F)c(Nc3ccc4oc(=O)[nH]c4c3)n2)cc1-c1cccnc1 [Compound I-209, 5-(2-(4-methoxy-3-(pyridin-3-yl)phenylamino)-5-fluoropyrimidin-4-ylamino)benzo[d]oxazol-2(3H)-one formate salt]	< 500 nM
COc1cc(Nc2ncc(Cl)c(Nc3ccc4oc(=O)[nH]c4c3)n2)cc(C(F)(F)F)c1 [Compound I-12, 5-(5-chloro-2-(3-methoxy-5-(trifluoromethyl)phenylamino)pyrimidin-4-ylamino)benzo[d]oxazol-2(3H)-one]	< 500 nM
O=C1CCCc2cc(Nc3ncc(F)c(Nc4ccc5oc(=O)[nH]c5c4)n3)ccc2N1 [II-27, 7-(4-(2,3-dihydro-2-oxobenzo[d]oxazol-5-ylamino)-5-fluoropyrimidin-2-ylamino)-4,5-dihydro-1H-benzo[b]azepin-2(3H)-one trifluoroacetate salt]	< 500 nM

The next lines start with the values.

IC50	Compound
< 500 nM	Cc1cnc(Nc2ccc(Br)cc2F)nc1Nc1ccc2oc(=O)[nH]c2c1 [Compound I-28, 5-[2-(4-Bromo-2-fluoro-phenylamino)-5-methyl-pyrimidin-4-ylamino]-3H-benzooxazol-2-one]
< 500 nM	Cc1cc(Nc2ncc(F)c(Nc3cc(F)c4oc(=O)[nH]c4c3)n2)cc(C)c1F [Compound I-189, 5-(2-(4-fluoro-3,5-dimethylphenylamino)-5-fluoropyrimidin-4-ylamino)-7-fluorobenzo[d]oxazol-2(3H)-one trifluoroacetate salt]
< 500 nM	CCN(CC)c1cc(Nc2ncc(C)c(Nc3ccc4oc(=O)[nH]c4c3)n2)cc(C)c1C [Compound I-84, 5-(2-(3-(diethylamino)-4,5-dimethylphenylamino)-5-methylpyrimidin-4-ylamino)benzo[d]oxazol-2(3H)-one formate salt]
< 500 nM	Cc1cc(Nc2ncc(F)c(Nc3cc(F)c4oc(=O)[nH]c4c3)n2)cc(C)c1C [Compound I-188, 5-(2-(3,4,5-trimethylphenylamino)-5-fluoropyrimidin-4-ylamino)-7-fluorobenzo[d]oxazol-2(3H)-one trifluoroacetate salt]
< 500 nM	CCN(CC)c1cc(Nc2ncc(Cl)c(Nc3ccc4oc(=O)[nH]c4c3)n2)cc(C)c1C [Compound I-86, 5-(5-chloro-2-(3-(diethylamino)-4,5-dimethylphenylamino)pyrimidin-4-ylamino)benzo[d]oxazol-2(3H)-one formate salt]
< 500 nM	COc1cc(Nc2ncc(F)c(Nc3cc(C)c4oc(=O)[nH]c4c3)n2)cc(C)c1OC [Compound I-183, 5-(2-(3,4-dimethoxy-5-methylphenylamino)-5-fluoropyrimidin-4-ylamino)-7-methylbenzo[d]oxazol-2(3H)-one trifluoroacetate salt]
> 10000 nM	Cc1cc(Nc2ncc(F)c(Nc3ccc4oc(=O)[nH]c4c3)n2)cc(C)c1C [Compound I-214, 5-fluoro-N2-(3,4,5-trimethyl)phenyl-N4-(2-oxo-2,3-dihydro-1,3-benzoxazol-5-yl)-2,4-pyrimidinediamine]
< 500 nM	O=C(NC1CC1)c1ccc(Nc2ncc(F)c(Nc3ccc4oc(=O)[nH]c4c3)n2)cc1C(F)(F)F [Compound I-165, N-cyclopropyl-4-(5-fluoro-4-(2-oxo-2,3-dihydrobenzo[d]oxazol-5-ylamino)pyrimidin-2-ylamino)-2-(trifluoromethyl)benzamide formate salt]
< 500 nM	COc1ccc(Nc2ncc(F)c(Nc3ccc4oc(=O)[nH]c4c3)n2)cc1C(F)(F)F [Compound I-212, 5-fluoro-N2-(4-methoxy-3-trifluoromethyl)phenyl-N4-(2-oxo-2,3-dihydro-1,3-benzoxazol-5-yl)-2,4-pyrimidinediamine]
< 500 nM	COc1cc(Nc2ncc(C)c(Nc3ccc4oc(=O)n(C)c4c3)n2)cc(C)c1F [Compound I-127, 5-(2-(4-fluoro-3-methoxy-5-methylphenylamino)-5-methylpyrimidin-4-ylamino)-3-methylbenzo[d]oxazol-2(3H)-one trifluoroacetate salt]
< 500 nM	Cc1cc(Nc2ncc(C)c(Nc3ccc4oc(=O)[nH]c4c3)n2)cc(C)n1 [II-19, N2-(2,6-dimethylpyridin-4-yl)-5-methyl-N4-(2-oxo-2,3-dihydro-1,3-benzoxazol-5-yl)-2,4-pyrimidinediamine]

From patent publication US11174251B2, “Compositions and methods for inhibition of the JAK pathway” (Rigel Pharmaceuticals, Inc., priority 2010, dated 2021)
